According to patent publication EP3311800B1, “COMPOSITION COMPRISING MICROSTRUCTURES FOR THE CONTROLLED RELEASE OF OZONIZED OIL” (Project & Communications, Ltd., priority 2016, dated 2018):

Tested on: fibroblast L929
Test: cytotoxicity test (MTT test), UNI EN ISO 10993-5:2009
Type: cell-based
Conditions: Mus musculus
Text: The four compositions indicated above were subjected to a cytotoxicity test (MTT test).
As is known, the cytotoxicity test (MTT test) is a reduction test used for determining the level of metabolic activity in the eukaryote cells. This is one of the most widely used cytotoxicity tests, thanks to its simplicity, accuracy and reproducibility. The chemical base of the test is the reduction of MTT, a tetrazole compound [3-(4,5-dimethylthiazol-2-yl)-2,5-diphenyltetrazolium bromide]. MTT is a yellow substance which, after reduction, forms a purple-colored formazan salt.
The process mainly takes place in the cytoplasm and secondarily in the mitochondria and at the level of the plasmatic membrane. The activity of the reductase that catalyze the reaction is highly dependent on the concentration of the intracellular NADH and NADPH, whose levels are associated with the availability of extracellular glucose. The mitochondrial succinate dehydrogenase and the cytochrome C also take part in the reduction of MTT. Consequently, any substance or treatment that interferes with these enzymes or with the glycolysis would influence the reduction of MTT and would therefore alter the results of the cell count. As a result of these metabolic reduction processes, dark purple crystals of formazan are formed within a few hours. These crystals can be solubilized in various organic solvents, mainly alcohols. An increase or a reduction in the number of cells causes an analogous variation in the quantity of formazan formed, thus giving an indication of the degree of cytotoxicity of the product tested.
The MTT test was carried out on cultures of fibroblast L929 treated with the extract (transfer liquid as such obtained after overnight incubation of the composition under examination in the culture medium) and subsequent dilutions 1:2. The same procedure was also applied for the negative reference (internal standard), whereas the positive control (SDS) was tested at concentrations ranging from 0.00313 to 0.4 mg/ml. Sodium dodecyl sulfate (SDS), a substance with known cytotoxic effects was used as positive control, whereas a non-cytotoxic internal standard was used as negative reference. The analysis was carried out according to the ISO standard for the biological evaluation of medical devices UNI EN ISO 10993-5:2009 (E) .
More specifically, an adequate number of cells was seeded in 96-well plates. Once a semi-confluent monolayer had been reached, the cells were treated with the various concentrations of the sample tested and standards and incubated for 24 hours under standard conditions. Non-treated cells kept in the culture medium represent the negative controls. After 24 hours of contact, the plates were examined under a phase contrast microscope, the medium was carefully removed from each well, the cells were then treated with MTT (1 mg/ml) and incubated for 3 hours under standard conditions. At the end of this period, the solution of MTT was eliminated and 100 µl of isopropanol were added to each well to dissolve the formazan crystals formed. The absorbance (optical density, OD) was determined by reading the spectrophotometer at a wavelength of 540 nm.
The inhibition of the cell vitality at each tested concentration was expressed as a percentage with respect to the negative control (non-treated cells) according to the following formula: Inhibition % = 100−[ODX /ODNC )×100] […]
The values thus calculated were charted against the same concentrations. […]

Compound: CCCCCCCCCCCCOS(=O)(=O)[O-].[Na+] [SDS, Sodium dodecyl sulfate]
- inhibition at 50 µg/mL (Concentration 0.05 mg/ml, 24 hours, read-out: Cell vitality inhibition (%)): 66.5%
- inhibition at 100 µg/mL (Concentration 0.1 mg/ml, 24 hours, read-out: Cell vitality inhibition (%)): 97.2%
- inhibition at 200 µg/mL (Concentration 0.2 mg/ml, 24 hours, read-out: Cell vitality inhibition (%)): 97.5%
- inhibition at 400 µg/mL (Concentration 0.4 mg/ml, 24 hours, read-out: Cell vitality inhibition (%)): 96.8%
- IC50 (concentration inhibiting cell vitality by 50%, extrapolated from concentration/response curve): 46 µg/mL
